Source: PubChem BioAssay (NCI)
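Grown in 96-well plates, cells were treated for 48 hours with each compound at five concentrations. Insufficient inhibition: endpoint recorded as highest concentration tested. GI50 = concentration required for 50% inhibition of growth. TGI: total growth inhibition.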

Legend:
Test in all cases: NCI tumour cell line growth inhibition, 48 h
A498 renal = test system: A498 renal
786-0 renal = test system: 786-0 renal
HCC-2998 colon = test system: HCC-2998 colon
UACC-62 melanoma = test system: UACC-62 melanoma
MOLT-4 leukemia = test system: MOLT-4 leukemia
SK-MEL-2 melanoma = test system: SK-MEL-2 melanoma
TK-10 renal = test system: TK-10 renal
UO-31 renal = test system: UO-31 renal
CAKI-1 renal = test system: CAKI-1 renal
SNB-19 CNS = test system: SNB-19 CNS

C[C@@H]1CN2[C@H]3[C@@H]1CC[C@]31CCC(=O)O[C@]1(C)[C@H]1CC[C@H]3CCC=C3[C@@H]12
GI50 (A498 renal): > 30 µM
TGI (A498 renal): > 30 µM
GI50 (786-0 renal): > 30 µM
TGI (786-0 renal): > 30 µM
GI50 (HCC-2998 colon): > 30 µM
TGI (HCC-2998 colon): > 30 µM
GI50 (UACC-62 melanoma): > 30 µM
TGI (UACC-62 melanoma): > 30 µM
GI50 (MOLT-4 leukemia): > 30 µM
TGI (MOLT-4 leukemia): > 30 µM
GI50 (SK-MEL-2 melanoma): > 30 µM
TGI (SK-MEL-2 melanoma): > 30 µM
GI50 (TK-10 renal): > 30 µM
TGI (TK-10 renal): > 30 µM
GI50 (UO-31 renal): > 30 µM
TGI (UO-31 renal): > 30 µM
GI50 (CAKI-1 renal): > 30 µM
TGI (CAKI-1 renal): > 30 µM
GI50 (SNB-19 CNS): > 30 µM
TGI (SNB-19 CNS): > 30 µM

CC(=O)N1C/C(=C\c2ccccc2)C(=O)/C(=C/c2ccccc2)C1
TGI (A498 renal): 31.8 µM
TGI (786-0 renal): 30.2 µM
TGI (HCC-2998 colon): 25 µM
TGI (UACC-62 melanoma): 34.2 µM
TGI (MOLT-4 leukemia): 23 µM
TGI (SK-MEL-2 melanoma): 56.6 µM
TGI (TK-10 renal): 34.8 µM
TGI (UO-31 renal): 34.4 µM
TGI (CAKI-1 renal): 35.5 µM
TGI (SNB-19 CNS): 31.5 µM

CC(=O)/C(=C\c1ccc(Cl)cc1)c1ccccc1
GI50 (A498 renal): 0.0309 µM
TGI (A498 renal): 0.378 µM
GI50 (786-0 renal): 0.128 µM
TGI (786-0 renal): > 100 µM
GI50 (HCC-2998 colon): 0.328 µM
TGI (HCC-2998 colon): > 68.9 µM
GI50 (UACC-62 melanoma): 0.0473 µM
TGI (UACC-62 melanoma): > 93.8 µM
GI50 (MOLT-4 leukemia): 0.124 µM
TGI (MOLT-4 leukemia): > 100 µM
GI50 (SK-MEL-2 melanoma): 0.141 µM
TGI (SK-MEL-2 melanoma): > 100 µM
GI50 (TK-10 renal): 2.76 µM
TGI (TK-10 renal): > 66.6 µM
GI50 (UO-31 renal): 1.02 µM
TGI (UO-31 renal): > 57.9 µM
GI50 (CAKI-1 renal): 0.549 µM
TGI (CAKI-1 renal): > 100 µM
GI50 (SNB-19 CNS): 0.344 µM
TGI (SNB-19 CNS): > 100 µM

ClC1=C(Cl)C(Cl)(C2(Cl)C(Cl)=C(Cl)C(Cl)=C2Cl)C(Cl)=C1Cl
GI50 (A498 renal): 1.71 µM
TGI (A498 renal): 3.19 µM
GI50 (786-0 renal): 0.242 µM
TGI (786-0 renal): 0.746 µM
GI50 (HCC-2998 colon): 2.13 µM
TGI (HCC-2998 colon): 4 µM
GI50 (UACC-62 melanoma): 0.43 µM
TGI (UACC-62 melanoma): 1.61 µM
GI50 (MOLT-4 leukemia): 0.242 µM
TGI (MOLT-4 leukemia): 2.31 µM
GI50 (SK-MEL-2 melanoma): 1.29 µM
TGI (SK-MEL-2 melanoma): 3.14 µM
GI50 (TK-10 renal): 0.201 µM
TGI (TK-10 renal): 0.462 µM
GI50 (UO-31 renal): 0.17 µM
TGI (UO-31 renal): 0.445 µM
GI50 (CAKI-1 renal): 0.265 µM
TGI (CAKI-1 renal): 0.832 µM
GI50 (SNB-19 CNS): 1.79 µM
TGI (SNB-19 CNS): 3.33 µM

O=C(N/N=C/c1ccc(Cl)cc1)c1ccc(NC(=O)c2ccccn2)cc1
GI50 (A498 renal): 44.9 µM
TGI (A498 renal): > 100 µM
GI50 (786-0 renal): 20.7 µM
TGI (786-0 renal): 59.6 µM
GI50 (HCC-2998 colon): > 100 µM
TGI (HCC-2998 colon): > 100 µM
GI50 (UACC-62 melanoma): 24.5 µM
TGI (UACC-62 melanoma): > 100 µM
GI50 (MOLT-4 leukemia): > 100 µM
TGI (MOLT-4 leukemia): > 100 µM
GI50 (SK-MEL-2 melanoma): 17.7 µM
TGI (SK-MEL-2 melanoma): > 100 µM
GI50 (TK-10 renal): 16.6 µM
TGI (TK-10 renal): 46.8 µM
GI50 (UO-31 renal): 11.2 µM
TGI (UO-31 renal): 38.2 µM
GI50 (CAKI-1 renal): 21.1 µM
TGI (CAKI-1 renal): > 100 µM
GI50 (SNB-19 CNS): 30 µM
TGI (SNB-19 CNS): > 100 µM

CC(=O)OCC1C(=O)OCC1C(=O)N1Cc2cc3ccccc3nc2C1 (stereo not given)
TGI (A498 renal): 16.4 µM
TGI (786-0 renal): 3.84 µM
TGI (HCC-2998 colon): 22.9 µM
TGI (UACC-62 melanoma): 7.99 µM
TGI (MOLT-4 leukemia): 4.25 µM
TGI (SK-MEL-2 melanoma): 22.9 µM
TGI (TK-10 renal): 4.17 µM
TGI (UO-31 renal): 8.15 µM
TGI (CAKI-1 renal): 3.16 µM
TGI (SNB-19 CNS): 32.8 µM

O=C(NCc1cn(Cc2cccc(Oc3ccccc3)c2)nn1)c1cccnc1Nc1ccc(F)cc1
GI50 (A498 renal): 13.7 µM
TGI (A498 renal): 95.1 µM
GI50 (786-0 renal): 23.2 µM
TGI (786-0 renal): > 100 µM
GI50 (HCC-2998 colon): > 100 µM
TGI (HCC-2998 colon): > 100 µM
GI50 (UACC-62 melanoma): 6.51 µM
TGI (UACC-62 melanoma): > 100 µM
GI50 (MOLT-4 leukemia): > 100 µM
TGI (MOLT-4 leukemia): > 100 µM
GI50 (SK-MEL-2 melanoma): 34.2 µM
TGI (SK-MEL-2 melanoma): > 100 µM
GI50 (TK-10 renal): 24.5 µM
TGI (TK-10 renal): > 100 µM
GI50 (UO-31 renal): 86.3 µM
TGI (UO-31 renal): > 100 µM
GI50 (CAKI-1 renal): 64.2 µM
TGI (CAKI-1 renal): > 100 µM
GI50 (SNB-19 CNS): 20.7 µM
TGI (SNB-19 CNS): > 100 µM

O=C1NN2CC(c3ccccc3)=NN=C2c2ccccc21
GI50 (A498 renal): 87.5 µM
TGI (A498 renal): > 100 µM
GI50 (786-0 renal): 26.2 µM
TGI (786-0 renal): 72.3 µM
GI50 (HCC-2998 colon): 15.6 µM
TGI (HCC-2998 colon): 36.2 µM
GI50 (UACC-62 melanoma): 22.6 µM
TGI (UACC-62 melanoma): 49.5 µM
GI50 (MOLT-4 leukemia): 11.1 µM
TGI (MOLT-4 leukemia): > 100 µM
GI50 (SK-MEL-2 melanoma): 52.8 µM
TGI (SK-MEL-2 melanoma): > 100 µM
GI50 (TK-10 renal): 31.5 µM
TGI (TK-10 renal): 98.3 µM
GI50 (UO-31 renal): 28 µM
TGI (UO-31 renal): 66.6 µM
GI50 (CAKI-1 renal): 33.5 µM
TGI (CAKI-1 renal): > 100 µM
GI50 (SNB-19 CNS): 20.5 µM
TGI (SNB-19 CNS): 44.7 µM

C[N+]1([O-])C2CCC1CC(OC(=O)C(CO)c1ccccc1)C2 (stereo not given)
TGI (A498 renal): > 100 µM
TGI (786-0 renal): > 100 µM
TGI (HCC-2998 colon): > 100 µM
TGI (UACC-62 melanoma): > 100 µM
TGI (MOLT-4 leukemia): > 100 µM
TGI (SK-MEL-2 melanoma): > 100 µM
TGI (TK-10 renal): > 100 µM
TGI (UO-31 renal): > 100 µM
TGI (CAKI-1 renal): > 100 µM
TGI (SNB-19 CNS): > 100 µM

N#CC1=C(N)Oc2c(sc3c(Br)cccc23)C1c1ccc([N+](=O)[O-])cc1 (stereo not given)
GI50 (A498 renal): 0.0434 µM
TGI (A498 renal): 0.935 µM
GI50 (786-0 renal): 0.158 µM
TGI (786-0 renal): 11.9 µM
GI50 (HCC-2998 colon): 0.284 µM
TGI (HCC-2998 colon): 6.94 µM
GI50 (UACC-62 melanoma): 0.0634 µM
TGI (UACC-62 melanoma): 12.3 µM
GI50 (MOLT-4 leukemia): 0.223 µM
TGI (MOLT-4 leukemia): 6.07 µM
GI50 (SK-MEL-2 melanoma): 0.294 µM
TGI (SK-MEL-2 melanoma): 17.5 µM
GI50 (TK-10 renal): 2.32 µM
TGI (TK-10 renal): 20 µM
GI50 (UO-31 renal): 0.126 µM
TGI (UO-31 renal): 14.5 µM
GI50 (CAKI-1 renal): 0.0837 µM
TGI (CAKI-1 renal): 16.9 µM
GI50 (SNB-19 CNS): 0.139 µM
TGI (SNB-19 CNS): 13 µM

COC(=O)c1c2c(c(C)[n+]([O-])c1C)C(=O)C(NCc1ccc(OC)cc1)=CC2=O
GI50 (A498 renal): 2.06 µM
TGI (A498 renal): 4.97 µM
GI50 (786-0 renal): 3.15 µM
TGI (786-0 renal): 18.8 µM
GI50 (HCC-2998 colon): 2.27 µM
TGI (HCC-2998 colon): 5.94 µM
GI50 (UACC-62 melanoma): 1.72 µM
TGI (UACC-62 melanoma): 3.62 µM
GI50 (MOLT-4 leukemia): 2.36 µM
TGI (MOLT-4 leukemia): 6.63 µM
GI50 (SK-MEL-2 melanoma): 2.23 µM
TGI (SK-MEL-2 melanoma): 5.88 µM
GI50 (TK-10 renal): 4.62 µM
TGI (TK-10 renal): 20.1 µM
GI50 (UO-31 renal): 2.48 µM
TGI (UO-31 renal): 10 µM
GI50 (CAKI-1 renal): 2.9 µM
TGI (CAKI-1 renal): 11.2 µM
GI50 (SNB-19 CNS): 2.11 µM
TGI (SNB-19 CNS): 5.03 µM

CC1(C)N=C(N)N=C(N)N1c1ccc(OCCCNC(=O)Nc2ccc(S(=O)(=O)F)cc2)c(Cl)c1
GI50 (A498 renal): 4.57 µM
TGI (A498 renal): 99.4 µM
GI50 (786-0 renal): 0.417 µM
TGI (786-0 renal): > 100 µM
GI50 (HCC-2998 colon): 0.832 µM
TGI (HCC-2998 colon): > 100 µM
GI50 (UACC-62 melanoma): 0.268 µM
TGI (UACC-62 melanoma): > 100 µM
GI50 (MOLT-4 leukemia): 0.386 µM
TGI (MOLT-4 leukemia): > 100 µM
GI50 (SK-MEL-2 melanoma): 0.79 µM
TGI (SK-MEL-2 melanoma): > 100 µM
GI50 (TK-10 renal): 0.907 µM
TGI (TK-10 renal): > 100 µM
GI50 (UO-31 renal): 69.5 µM
TGI (UO-31 renal): > 100 µM
GI50 (CAKI-1 renal): 17.9 µM
TGI (CAKI-1 renal): > 95 µM
GI50 (SNB-19 CNS): 1.08 µM
TGI (SNB-19 CNS): > 100 µM

COc1cccc2c1nc(C(F)F)n2-c1nc(-c2ccc(NS(=O)(=O)CCN(C)C)cc2)nc(N2CCOCC2)n1
GI50 (A498 renal): 0.0337 µM
TGI (A498 renal): 0.279 µM
GI50 (786-0 renal): 0.231 µM
TGI (786-0 renal): 2.76 µM
GI50 (HCC-2998 colon): 0.0974 µM
TGI (HCC-2998 colon): 17.4 µM
GI50 (UACC-62 melanoma): 0.134 µM
TGI (UACC-62 melanoma): 1.45 µM
GI50 (MOLT-4 leukemia): 0.123 µM
TGI (MOLT-4 leukemia): 3.71 µM
GI50 (SK-MEL-2 melanoma): 0.195 µM
TGI (SK-MEL-2 melanoma): 2.5 µM
GI50 (TK-10 renal): 0.0597 µM
TGI (TK-10 renal): 0.615 µM
GI50 (UO-31 renal): 0.0659 µM
TGI (UO-31 renal): 1.1 µM
GI50 (CAKI-1 renal): 0.168 µM
TGI (CAKI-1 renal): 4.69 µM
GI50 (SNB-19 CNS): 1.28 µM
TGI (SNB-19 CNS): > 100 µM
